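Grown in 96-well plates, cells were treated for 48 hours with each compound at five concentrations. Insufficient inhibition: endpoint recorded as highest concentration tested. The concentration for 50% growth inhibition is given as GI50. Definition used: TGI = concentration required for complete inhibition of growth.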
How the values were obtained:
Assay in all cases: inhibition of tumour cell growth, NCI panel, 48 h
NCI-H460 lung = tested on: NCI-H460 lung
OVCAR-8 ovarian = tested on: OVCAR-8 ovarian
MDA-MB-435 = tested on: MDA-MB-435
NCI-H522 lung = tested on: NCI-H522 lung
COLO 205 colon = tested on: COLO 205 colon
UO-31 renal = tested on: UO-31 renal
M14 melanoma = tested on: M14 melanoma
786-0 renal = tested on: 786-0 renal

Row | Compound | GI50 (NCI-H460 lung) | TGI (NCI-H460 lung) | GI50 (OVCAR-8 ovarian) | TGI (OVCAR-8 ovarian) | GI50 (MDA-MB-435) | TGI (MDA-MB-435) | GI50 (NCI-H522 lung) | TGI (NCI-H522 lung) | GI50 (COLO 205 colon) | TGI (COLO 205 colon) | GI50 (UO-31 renal) | TGI (UO-31 renal) | GI50 (M14 melanoma) | TGI (M14 melanoma) | GI50 (786-0 renal) | TGI (786-0 renal)
1 | CN(C)c1ccc(C(=O)c2ccc(N(C)C)c(N)c2)cc1N | 2.62 µM | 34.5 µM | 8.99 µM | > 100 µM | 0.422 µM | 1.25 µM | 0.346 µM | 4.61 µM | 2.32 µM | 18.5 µM | 4.02 µM | > 67.7 µM | 1.67 µM | 9.74 µM | 9.74 µM | > 91.5 µM
2 | Cc1[nH]c(C(=O)Nc2ccc(C(=O)N3CCNCC3)cc2OC(C)C)c(Cl)c1Cl | 1.88 µM | 3.44 µM | 2.25 µM | 5.32 µM | 1.76 µM | 3.23 µM | 1.72 µM | 3.42 µM |  |  | 1.44 µM | 2.85 µM | 1.94 µM | 3.57 µM | 1.63 µM | 3.18 µM
3 | Cc1nc2cncc(C#Cc3cncc(C(=O)Nc4ccc(CN5CCN(C)CC5)c(C(F)(F)F)c4)c3)c2nc1C | 0.354 µM | 6.34 µM | 0.721 µM | 8.88 µM | 0.21 µM | 3.03 µM | 0.466 µM | 8.21 µM | 0.196 µM | 5.96 µM | 0.256 µM | 1.06 µM | 0.144 µM | 0.624 µM | 0.925 µM | 7.4 µM
4 | C[N+](C)([O-])CCCNc1c2ccccc2nc2cccc([N+](=O)[O-])c12 |  | 0.707 µM |  | 20.7 µM |  | 0.647 µM |  | 0.67 µM |  | 0.322 µM |  | 4.34 µM |  | 0.772 µM |  | 0.872 µM
5 | NS(=O)(=O)c1ccc(C2C3=C(CCCC3=O)OC3=C2C(=O)c2ccccc2C3=O)cc1 (stereo not drawn) | 0.589 µM | 2.12 µM |  |  | 0.19 µM | 0.357 µM | 0.174 µM | 0.563 µM | 0.348 µM | 1.29 µM | 1.55 µM | 2.92 µM | 0.455 µM | 1.68 µM | 1.64 µM | 3.02 µM
6 | COc1cc(C(=O)/C=C/c2c(-c3ccc(F)cc3)nc3sc(C)cn23)cc(OC)c1OC | 3.87 µM | > 100 µM | 4.94 µM | > 100 µM | 1.75 µM | 6.92 µM | 2.96 µM | > 100 µM | 4.94 µM | > 100 µM | 2.95 µM | > 100 µM | 5.12 µM | > 100 µM | 8.88 µM | > 100 µM
7 | OCCCCC#Cc1ccccc1C#Cc1ccccc1F | 25.9 µM | 60.5 µM | 20.8 µM | 47.9 µM | 18.9 µM | 37.2 µM | 16.3 µM | 32.6 µM | 16.4 µM | 31.3 µM | 20.7 µM | 46.5 µM | 14.6 µM | 29.6 µM | 14.3 µM | 29.8 µM
8 | COc1ccc(Nc2ccnc(NCCNc3ccnc4cc(Cl)ccc34)n2)cc1 | 2.36 µM | 12.8 µM | 3.54 µM | 17.3 µM | 1.5 µM | 2.9 µM | 2.38 µM | 7.8 µM | 1.45 µM | 3.24 µM | 1.5 µM | 3.7 µM | 1.46 µM | 3.41 µM | 1.87 µM | 4.33 µM
9 | O=C(Nc1c(Cl)cc([N+](=O)[O-])cc1Cl)C(=O)C1C(=O)NC(=S)NC1=O |  | > 100 µM |  | > 100 µM |  | > 100 µM |  | > 100 µM |  |  |  | > 100 µM |  | > 100 µM |  | > 100 µM
10 | c1cc(C2CCCCC2)ccc1OCCCCCCN1CCNCC1 | 1.84 µM | 3.43 µM |  |  | 1.64 µM | 3.12 µM | 1.7 µM | 3.38 µM | 1.96 µM | 3.55 µM | 1.62 µM | 3.38 µM | 1.98 µM | 4.33 µM | 2.31 µM | 5.31 µM
11 | NC(N)=N/N=C/c1c(-c2cccs2)nc2sccn12 | 14.7 µM | 39.7 µM | 24.1 µM | 49 µM | 13.2 µM | 25.9 µM |  |  |  |  | 17 µM | 33.7 µM | 16.6 µM | 30.2 µM | 9.61 µM | 21.4 µM
12 | C[C@]12CC/C(=N\N)C[C@@H]1CC[C@@H]1[C@@H]2CC[C@]2(C)/C(=N/N)CC[C@@H]12 | > 100 µM | > 100 µM | > 100 µM | > 100 µM | > 100 µM | > 100 µM | > 100 µM | > 100 µM |  |  | 51 µM | > 100 µM | > 100 µM | > 100 µM | > 100 µM | > 100 µM
13 | COc1ccc(C(O)c2cc3c(N)c(C(=O)Nc4cccc(Cl)c4C)sc3nc2C)cc1 (stereo not drawn) | 0.834 µM | 1.73 µM | 0.948 µM | 2.17 µM | 0.825 µM | 1.56 µM |  |  |  |  | 0.627 µM | 1.27 µM | 0.872 µM | 1.78 µM | 0.786 µM | 1.53 µM
14 | O=C1c2ccccc2-c2nccc3cc(Cl)nc1c23 | 3 µM | 12.2 µM |  |  | 1.41 µM | 2.84 µM | 0.458 µM | 1.61 µM |  |  |  |  |  |  | 5.72 µM | > 100 µM
15 | Cc1cc(=O)c2cc(N=Cc3ccc([N+](=O)[O-])o3)ccc2o1 |  | > 100 µM |  |  |  | > 100 µM |  | > 100 µM |  | > 100 µM |  | > 100 µM |  | > 100 µM |  | > 100 µM
16 | CCON=C1C(C)(C)C(C)(C)C(C)(C)C1(C)C |  | > 100 µM |  | > 100 µM |  | > 100 µM |  | > 100 µM |  | > 100 µM |  |  |  | > 100 µM |  | > 100 µM
17 | ON(CCc1ccncc1)Cc1ccccc1 |  |  |  | > 100 µM |  | > 100 µM |  | > 100 µM |  | > 100 µM |  | > 100 µM |  | > 100 µM |  | > 100 µM
18 | O=S(=O)([O-])[O-].[Cl-].[NH2-].[NH2-].[NH2-].[NH2-].[Ru+3].c1ccc(-c2cccnc2)cc1 | > 100 µM | > 100 µM | > 100 µM | > 100 µM |  |  | > 100 µM | > 100 µM | > 100 µM | > 100 µM | > 100 µM | > 100 µM | > 100 µM | > 100 µM | > 100 µM | > 100 µM
